Test results reported in patent publication US12595239B2, “Substituted isoxazoline derivatives” (BASF SE, priority 2021, dated 2026).

Tests used:
Type in all cases: in vivo
[1] = system: Plutella xylostella; test: B.6 Diamond Back Moth, cabbage leaf disc dip test; conditions: foliar, 3rd instar larvae, 72 hours after treatment, read-out: mortality in comparison with untreated controls
Experimental: The active compound was dissolved at the desired concentration in a mixture of 1:1 (vol:vol) distilled water:acetone. Surfactant (Kinetic) was added at a rate of 0.01% (vol/vol). The test solution was prepared at the day of use. Cabbage leaf discs (60 mm in diameter) were dipped in test solution and air-dried. Treated leaves were placed in petri dishes lined with moistened filter paper and inoculated with ten 3rd instar larvae. Mortality was recorded 72 hours after treatment. Feeding damages were also recorded using a scale of 0-100%.

[2] = system: Dichromothrips corbetti; test: B.7 Orchid Thrips, floral-immersion test; conditions: adult thrips, 72 hours after treatment, read-out: mortality in comparison with untreated controls
Experimental: Dichromothrips corbetti adults used for bioassay were obtained from a colony maintained continuously under laboratory conditions. For testing purposes, the test compound was diluted in a 1:1 mixture of acetone:water (vol:vol), plus Kinetic at a rate of 0.01% v/v.
Thrips potency of each compound was evaluated by using a floral-immersion technique. Each orchid petal was dipped into treatment solution and allowed to dry in Petri dishes. Treated petals were placed into individual re-sealable plastic along with about 20 adult thrips. All test arenas were held under dark condition and a temperature of about 28° C. for duration of the assay. The percent mortality was recorded 72 hours after treatment.

[3] = system: Bemisia argentifolii; test: B.12 Silverleaf Whitefly (adults), cotton plant spray test; conditions: 72 h, 3 days after treatment, read-out: mortality in comparison with untreated controls
Experimental: The active compounds were formulated by a Tecan liquid handler in 100% cyclohexanone as a 10,000-ppm solution supplied in tubes. The 10,000-ppm solution was serially diluted in 100% cyclohexanone to make interim solutions. These served as stock solutions for which final dilutions were made by the Tecan in 50% acetone:50% water (v/v) into 5 or 10 ml glass vials. A nonionic surfactant (Kinetic®) was included in the solution at a volume of 0.01% (v/v). The vials were then inserted into an automated electrostatic sprayer equipped with an atomizing nozzle for application to plants/insects. Cotton plants at the cotyledon stage (one plant per pot) were sprayed by an automated electrostatic plant sprayer equipped with an atomizing spray nozzle. The plants were dried in the sprayer fume hood and then removed from the sprayer. Each pot was placed into a plastic cup and about 10 to 12 whitefly adults (approximately 3-5 days old) were introduced. The insects were collected using an aspirator and a nontoxic Tygon® tubing connected to a barrier pipette tip. The tip, containing the collected insects, was then gently inserted into the soil containing the treated plant, allowing insects to crawl out of the tip to reach the foliage for feeding. Cups were covered with a reusable screened lid. Test plants were maintained in a growth room at about 25° C. and about 20-40% relative humidity for 3 days, avoiding direct exposure to fluorescent light (14:10 light:dark photoperiod) to prevent trapping of heat inside the cup. Mortality was assessed 3 days after treatment, compared to untreated control plants.

[4] = system: Anthonomus grandis; test: B.1 Boll weevil (Anthonomus grandis), 96-well microtiter plate diet test; conditions: 120 h, egg and larval mortality, 5 days, read-out: mortality in comparison with untreated controls
Experimental: For evaluating control of boll weevil, the test unit consisted of 96-well-microtiter plates containing an insect diet and 5-10 A. grandis eggs.
The compounds were formulated using a solution containing 75% v/v water and 25% v/v DMSO. Different concentrations of formulated compounds were sprayed onto the insect diet at 5 μl, using a custom-built micro atomizer, at two replications.
After application, microtiter plates were incubated at about 25±1° C. and about 75±5% relative humidity for 5 days. Egg and larval mortality were then visually assessed.

[5] = system: Aedes aegypti; test: whole plant or invertebrate; conditions: 48 h, larval mortality, 2 days, read-out: mortality in comparison with untreated controls
Experimental: For evaluating control of Yellow Fever Mosquito, the test unit consisted of 96-well-microtiter plates containing 200 μl of tap water per well and 5-15 freshly hatched A. aegypti larvae. The active compounds were formulated using a solution containing 75% (v/v) water and 25% (v/v) DMSO. Different concentrations of formulated compounds or mixtures were sprayed onto the insect diet at 2.5 μl, using a custom-built micro atomizer, at two replications.
After application, microtiter plates were incubated at 28±1° C., 80±5% RH for 2 days. Larval mortality was then visually assessed.

[6] = system: Tetranychus kanzawai; test: B.10 Red Spider Mite, cowpea bean spray test; conditions: 72 hours after treatment, read-out: mortality in comparison with untreated controls
Experimental: The active compound was dissolved at the desired concentration in a mixture of 1:1 (vol:vol) distilled water:acetone. Add surfactant (Kinetic) was added at a rate of 0.01% (vol/vol). The test solution was prepared at the day of use. Potted cowpea beans of 4-5 days of age were cleaned with tap water and sprayed with I-2 ml of the test solution using air driven DeVilbiss® hand atomizer at 20-30 psi (≈1,38 to 2,07 bar). The treated plants were allowed to air dry and afterwards inoculated with 30 or more mites by clipping a cassava leaf section from rearing population. Treated plants were placed inside a holding room at about 25-26° C. and about 65-70% relative humidity. Percent mortality was assessed 72 hours after treatment.

[7] = system: Spodoptera eridania; test: B.11 Southern Armyworm 2nd instar larvae, lima bean foliar spray test; conditions: 96 h, 4 days after treatment, read-out: mortality in comparison with untreated controls
Experimental: The active compounds were formulated by a Tecan liquid handler in 100% cyclohexanone as a 10′000 ppm solution supplied in tubes. The 10′000 ppm solution was serially diluted in 100% cyclohexanone to make interim solutions. These served as stock solutions for which final dilutions were made by the Tecan in 50% acetone:50% water (v/v) into 10 or 20 ml glass vials. A nonionic surfactant (Kinetic®) was included in the solution at a volume of 0.01% (v/v). The vials were then inserted into an automated electrostatic sprayer equipped with an atomizing nozzle for application to plants/insects. Lima bean plants (variety Sieva) were grown 2 plants to a pot and selected for treatment at the 1st true leaf stage. Test solutions were sprayed onto the foliage by an automated electrostatic plant sprayer equipped with an atomizing spray nozzle. The plants were dried in the sprayer fume hood and then removed from the sprayer. Each pot was placed into perforated plastic bags with a zip closure. Ten to 11 armyworm larvae were placed into the bag and the bags zipped closed. Test plants were maintained in a growth room at about 25° C. and about 20-40% relative humidity for 4 days, avoiding direct exposure to fluorescent light (14:10 light:dark photo-period) to prevent trapping of heat inside the bags. Mortality and reduced feeding were assessed 4 days after treatment, compared to untreated control plants.

[8] = system: Myzus persicae; test: B.3 Green Peach Aphid (mixed life stages), systemic artificial diet test; conditions: 72 h, treated aphid diet, 3 days, read-out: mortality in comparison with untreated controls
From the text: For evaluating control of Green Peach Aphid through systemic means the test unit consisted of 96-well-microtiter plates containing liquid artificial diet under an artificial membrane. The compounds were formulated using a solution containing 75% v/v water and 25% v/v DMSO. Different concentrations of formulated compounds were pipetted into the aphid diet, using a custom-built pipette, at two replications. After application, 5-8 adult aphids were placed on the artificial membrane inside the microtiter plate wells. The aphids were then allowed to suck on the treated aphid diet and incubated at about 23±1° C. and about 50±5% relative humidity for 3 days. Aphid mortality and fecundity was then visually assessed.

O=C(Nc1ncc(F)cc1F)c1cc(OC2=NOC(c3cc(Cl)c(F)c(Cl)c3)(C(F)(F)F)C2)ccc1Cl (centres unmarked) [II-8, 2-chloro-5-[[5-(3,5-dichloro-4-fluoro-phenyl)-5-(trifluoromethyl)-4H-isoxazol-3-yl]oxy]-N-(3,5-difluoro-2-pyridyl)benzamide]
≥ 75%: mortality at 300 ppm [1] | mortality at 300 ppm [2] | mortality at 300 ppm [3] | mortality at 2500 ppm [4] | mortality at 2500 ppm [5] | mortality at 300 ppm [6] | mortality at 300 ppm [7] | mortality at 2500 ppm [8]
